Among the targets are D(1A) dopamine receptor (Homo sapiens, UniProt P21728); D(2) dopamine receptor (Homo sapiens, UniProt P14416); D(3) dopamine receptor (Homo sapiens, UniProt P35462); Histamine H1 receptor (Homo sapiens, UniProt P35367); D(4) dopamine receptor (Rattus norvegicus, UniProt P30729); Cannabinoid receptor 1 (Rattus norvegicus, UniProt P20272); D(1B) dopamine receptor (Homo sapiens, UniProt P21918).

In assay [1] the target is 5-hydroxytryptamine receptor 2B (Homo sapiens, UniProt P41595).
Assay [2] deals with Sodium-dependent dopamine transporter (Rattus norvegicus, UniProt P23977).
The target of assay [3] is Sodium-dependent serotonin transporter (Rattus norvegicus, UniProt P31652).
The target of assay [4] is Norepinephrine transporter (Rattus norvegicus, UniProt Q9JIA2).
The target in assay [5] is Prostaglandin E2 receptor EP4 subtype (Homo sapiens, UniProt P35408).
The target in assay [6] is Neuronal acetylcholine receptor subunit alpha-3 (Homo sapiens, UniProt P32297).
In assay [7] the target is Gamma-aminobutyric acid receptor subunit alpha-1 (Rattus norvegicus, UniProt P62813).
The target of assay [8] is Acetylcholine receptor subunit alpha (Homo sapiens, UniProt P02708).
Assay [9] addresses Beta-2 adrenergic receptor (Rattus norvegicus, UniProt P10608).
Assay [10] has as its target 5-hydroxytryptamine receptor 1A (Homo sapiens, UniProt P08908).
Assay [11] addresses Metabotropic glutamate receptor 1 (Rattus norvegicus, UniProt P23385).
For assay [12], the target named is Muscarinic acetylcholine receptor M2 (Homo sapiens, UniProt P08172).
Assay [13] concerns the target Muscarinic acetylcholine receptor M4 (Homo sapiens, UniProt P08173).
The target of assay [14] is Metabotropic glutamate receptor 2 (Homo sapiens, UniProt Q14416).
In assay [15] the target is 5-hydroxytryptamine receptor 1B (Homo sapiens, UniProt P28222).
Assay [16] deals with Prostaglandin E2 receptor EP3 subtype (Homo sapiens, UniProt P43115).
Assay [17] has as its target Metabotropic glutamate receptor 8 (Rattus norvegicus, UniProt P70579).
For assay [18], the target named is 5-hydroxytryptamine receptor 5A (Homo sapiens, UniProt P47898).
Assay [19] concerns the target Sodium-dependent dopamine transporter (Homo sapiens, UniProt Q01959).
For assay [20], the target named is Glutamate receptor ionotropic, NMDA 1 (Rattus norvegicus, UniProt P35439).
The target in assay [21] is 5-hydroxytryptamine receptor 2C (Rattus norvegicus, UniProt P08909).
Assay [22] addresses 5-hydroxytryptamine receptor 7 (Homo sapiens, UniProt P34969).
The target in assay [23] is Voltage-dependent L-type calcium channel subunit alpha-1C (Rattus norvegicus, UniProt P22002).
Assay [24] concerns the target Alpha-2C adrenergic receptor (Homo sapiens, UniProt P18825).
The target in assay [25] is 5-hydroxytryptamine receptor 1D (Homo sapiens, UniProt P28221).
Assay [26] has as its target Muscarinic acetylcholine receptor M1 (Homo sapiens, UniProt P11229).
Assay [27] concerns the target Metabotropic glutamate receptor 4 (Rattus norvegicus, UniProt P31423).
For assay [28], the target named is Alpha-2A adrenergic receptor (Homo sapiens, UniProt P08913).
For assay [29], the target named is Alpha-1A adrenergic receptor (Homo sapiens, UniProt P35348).
Assay [30] concerns the target Beta-1 adrenergic receptor (Rattus norvegicus, UniProt P18090).
Assay [31] concerns the target Sodium-dependent noradrenaline transporter (Homo sapiens, UniProt P23975).
The target of assay [32] is 5-hydroxytryptamine receptor 6 (Homo sapiens, UniProt P50406).
Assay [33] has as its target Gamma-aminobutyric acid (GABA) B receptor 1 (Rattus norvegicus, UniProt Q6MFX8).
The target of assay [34] is Muscarinic acetylcholine receptor M5 (Homo sapiens, UniProt P08912).

The structures appear in SMILES notation. pKi: −log10 of the molar value. Values joined by “and” are separate entries in the source; they are usually repeats but may differ in a detail not shown here. Equal values may be shown once. Bounds are passed on as bounds.

Chain of 5-hydroxytryptamine receptor 2B (P41595 whole entry): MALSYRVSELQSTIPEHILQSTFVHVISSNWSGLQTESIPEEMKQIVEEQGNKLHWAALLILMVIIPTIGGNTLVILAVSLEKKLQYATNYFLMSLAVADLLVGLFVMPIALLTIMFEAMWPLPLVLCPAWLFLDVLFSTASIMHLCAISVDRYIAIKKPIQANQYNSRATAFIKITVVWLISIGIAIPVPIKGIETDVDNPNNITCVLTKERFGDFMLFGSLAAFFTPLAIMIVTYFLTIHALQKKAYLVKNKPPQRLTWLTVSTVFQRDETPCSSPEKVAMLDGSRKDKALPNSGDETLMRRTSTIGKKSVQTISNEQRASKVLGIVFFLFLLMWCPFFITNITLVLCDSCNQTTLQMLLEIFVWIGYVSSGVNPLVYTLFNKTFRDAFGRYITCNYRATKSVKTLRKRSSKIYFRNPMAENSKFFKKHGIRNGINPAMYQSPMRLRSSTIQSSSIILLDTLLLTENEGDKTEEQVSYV
Chain of Sodium-dependent serotonin transporter (P31652 whole entry): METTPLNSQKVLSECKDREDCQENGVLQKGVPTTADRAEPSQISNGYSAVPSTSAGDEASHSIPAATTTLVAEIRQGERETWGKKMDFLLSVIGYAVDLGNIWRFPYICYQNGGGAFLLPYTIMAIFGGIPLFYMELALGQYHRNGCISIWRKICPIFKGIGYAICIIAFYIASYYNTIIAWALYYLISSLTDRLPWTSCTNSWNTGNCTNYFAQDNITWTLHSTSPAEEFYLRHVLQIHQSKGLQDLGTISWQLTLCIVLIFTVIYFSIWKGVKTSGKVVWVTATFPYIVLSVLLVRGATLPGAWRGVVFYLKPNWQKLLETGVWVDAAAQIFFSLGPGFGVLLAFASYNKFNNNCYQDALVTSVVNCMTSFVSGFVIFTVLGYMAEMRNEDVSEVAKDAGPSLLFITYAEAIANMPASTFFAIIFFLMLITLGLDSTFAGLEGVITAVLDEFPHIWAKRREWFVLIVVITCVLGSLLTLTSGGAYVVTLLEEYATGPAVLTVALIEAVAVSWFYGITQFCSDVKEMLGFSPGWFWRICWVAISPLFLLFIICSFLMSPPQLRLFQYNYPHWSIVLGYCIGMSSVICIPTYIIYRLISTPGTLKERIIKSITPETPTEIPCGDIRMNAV
Chain of Sodium-dependent dopamine transporter (Rattus norvegicus, UniProt P23977) (P23977 whole entry): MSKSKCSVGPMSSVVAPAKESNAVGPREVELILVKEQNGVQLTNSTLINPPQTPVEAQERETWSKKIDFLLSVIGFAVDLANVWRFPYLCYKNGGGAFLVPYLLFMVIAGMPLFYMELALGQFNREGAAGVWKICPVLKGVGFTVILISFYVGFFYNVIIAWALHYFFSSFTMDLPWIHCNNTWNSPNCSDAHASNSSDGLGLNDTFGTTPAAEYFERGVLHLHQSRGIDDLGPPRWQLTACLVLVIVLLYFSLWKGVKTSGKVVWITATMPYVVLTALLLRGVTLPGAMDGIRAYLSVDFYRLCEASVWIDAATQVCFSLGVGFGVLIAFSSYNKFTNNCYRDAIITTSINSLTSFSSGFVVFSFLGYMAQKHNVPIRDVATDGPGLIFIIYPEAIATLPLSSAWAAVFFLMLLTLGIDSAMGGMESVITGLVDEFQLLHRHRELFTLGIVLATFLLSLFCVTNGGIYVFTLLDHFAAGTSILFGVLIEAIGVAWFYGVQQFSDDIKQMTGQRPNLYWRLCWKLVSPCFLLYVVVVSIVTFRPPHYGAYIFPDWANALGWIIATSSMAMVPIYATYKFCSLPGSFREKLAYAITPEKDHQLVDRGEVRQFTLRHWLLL
Chain of Gamma-aminobutyric acid receptor subunit alpha-1 (P62813 whole entry): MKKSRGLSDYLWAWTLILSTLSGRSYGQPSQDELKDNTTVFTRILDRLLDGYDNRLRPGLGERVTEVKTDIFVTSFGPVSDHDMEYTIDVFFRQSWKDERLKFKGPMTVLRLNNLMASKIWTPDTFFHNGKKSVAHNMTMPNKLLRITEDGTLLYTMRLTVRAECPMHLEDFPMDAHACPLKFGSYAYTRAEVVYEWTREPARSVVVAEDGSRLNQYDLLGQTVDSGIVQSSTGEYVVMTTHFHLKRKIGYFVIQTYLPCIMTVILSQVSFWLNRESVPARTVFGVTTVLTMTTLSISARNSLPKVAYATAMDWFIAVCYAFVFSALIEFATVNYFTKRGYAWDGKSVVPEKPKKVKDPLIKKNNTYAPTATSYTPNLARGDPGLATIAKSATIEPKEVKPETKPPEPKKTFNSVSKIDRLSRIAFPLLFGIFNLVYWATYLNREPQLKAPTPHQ
Chain of Metabotropic glutamate receptor 2 (Q14416 whole entry): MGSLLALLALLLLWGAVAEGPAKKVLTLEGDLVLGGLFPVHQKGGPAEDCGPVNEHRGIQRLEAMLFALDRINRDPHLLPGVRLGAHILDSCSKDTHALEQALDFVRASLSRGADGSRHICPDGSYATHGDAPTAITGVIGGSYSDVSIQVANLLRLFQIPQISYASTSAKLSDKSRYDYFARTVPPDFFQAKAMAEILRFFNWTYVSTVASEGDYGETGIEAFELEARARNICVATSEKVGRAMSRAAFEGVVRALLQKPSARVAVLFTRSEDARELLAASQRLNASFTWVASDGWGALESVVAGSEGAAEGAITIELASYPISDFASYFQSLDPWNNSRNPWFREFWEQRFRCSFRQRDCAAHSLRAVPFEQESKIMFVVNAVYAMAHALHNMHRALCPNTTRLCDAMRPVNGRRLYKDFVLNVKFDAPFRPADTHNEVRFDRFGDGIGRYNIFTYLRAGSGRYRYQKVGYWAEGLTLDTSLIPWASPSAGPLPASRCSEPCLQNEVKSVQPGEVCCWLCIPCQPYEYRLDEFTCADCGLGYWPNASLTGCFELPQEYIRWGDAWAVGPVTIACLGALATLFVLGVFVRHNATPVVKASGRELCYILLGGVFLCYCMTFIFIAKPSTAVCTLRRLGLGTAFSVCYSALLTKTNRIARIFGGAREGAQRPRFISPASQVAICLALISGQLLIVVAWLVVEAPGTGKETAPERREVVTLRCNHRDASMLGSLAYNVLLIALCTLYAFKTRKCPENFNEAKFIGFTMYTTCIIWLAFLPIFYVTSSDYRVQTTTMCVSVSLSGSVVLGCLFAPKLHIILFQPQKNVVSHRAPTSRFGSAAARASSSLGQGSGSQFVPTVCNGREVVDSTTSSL
Chain of Alpha-2C adrenergic receptor (P18825 whole entry): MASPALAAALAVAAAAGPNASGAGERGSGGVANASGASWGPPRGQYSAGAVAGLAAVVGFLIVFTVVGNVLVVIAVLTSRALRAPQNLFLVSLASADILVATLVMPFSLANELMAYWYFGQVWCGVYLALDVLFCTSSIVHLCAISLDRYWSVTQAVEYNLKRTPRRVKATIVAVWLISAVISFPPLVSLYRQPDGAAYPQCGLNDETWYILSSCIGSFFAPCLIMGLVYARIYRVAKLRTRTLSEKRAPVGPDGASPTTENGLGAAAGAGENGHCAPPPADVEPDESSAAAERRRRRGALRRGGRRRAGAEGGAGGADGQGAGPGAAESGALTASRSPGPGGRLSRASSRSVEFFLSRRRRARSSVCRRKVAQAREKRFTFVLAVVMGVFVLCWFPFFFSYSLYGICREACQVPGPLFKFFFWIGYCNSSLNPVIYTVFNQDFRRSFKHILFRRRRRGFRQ
Chain of Neuronal acetylcholine receptor subunit alpha-3 (P32297 whole entry): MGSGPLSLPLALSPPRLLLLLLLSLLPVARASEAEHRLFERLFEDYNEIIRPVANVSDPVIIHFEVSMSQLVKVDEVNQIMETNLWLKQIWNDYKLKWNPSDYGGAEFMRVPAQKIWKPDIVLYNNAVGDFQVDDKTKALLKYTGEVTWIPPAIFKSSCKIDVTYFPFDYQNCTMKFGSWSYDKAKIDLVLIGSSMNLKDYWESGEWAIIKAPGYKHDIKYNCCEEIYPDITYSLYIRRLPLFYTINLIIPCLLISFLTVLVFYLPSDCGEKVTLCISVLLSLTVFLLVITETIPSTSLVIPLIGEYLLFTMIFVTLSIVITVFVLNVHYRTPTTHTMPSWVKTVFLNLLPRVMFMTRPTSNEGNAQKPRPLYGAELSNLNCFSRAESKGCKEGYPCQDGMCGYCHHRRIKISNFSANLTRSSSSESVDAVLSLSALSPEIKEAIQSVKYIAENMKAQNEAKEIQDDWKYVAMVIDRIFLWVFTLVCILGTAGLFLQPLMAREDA
Chain of 5-hydroxytryptamine receptor 2C (P08909 whole entry): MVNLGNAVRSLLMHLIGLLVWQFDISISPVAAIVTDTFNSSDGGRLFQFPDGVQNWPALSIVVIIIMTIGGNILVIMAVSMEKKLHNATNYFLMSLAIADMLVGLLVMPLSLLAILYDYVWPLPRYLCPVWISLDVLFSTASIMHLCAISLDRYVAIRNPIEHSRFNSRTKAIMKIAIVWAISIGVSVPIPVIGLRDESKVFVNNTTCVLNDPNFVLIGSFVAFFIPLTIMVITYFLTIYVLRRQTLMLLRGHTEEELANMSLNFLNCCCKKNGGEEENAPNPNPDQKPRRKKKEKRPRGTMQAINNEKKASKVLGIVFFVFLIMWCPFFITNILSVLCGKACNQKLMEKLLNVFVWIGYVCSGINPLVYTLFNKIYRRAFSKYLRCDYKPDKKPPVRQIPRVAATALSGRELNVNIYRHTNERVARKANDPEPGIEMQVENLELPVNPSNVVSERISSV
Chain of Beta-1 adrenergic receptor (P18090 whole entry): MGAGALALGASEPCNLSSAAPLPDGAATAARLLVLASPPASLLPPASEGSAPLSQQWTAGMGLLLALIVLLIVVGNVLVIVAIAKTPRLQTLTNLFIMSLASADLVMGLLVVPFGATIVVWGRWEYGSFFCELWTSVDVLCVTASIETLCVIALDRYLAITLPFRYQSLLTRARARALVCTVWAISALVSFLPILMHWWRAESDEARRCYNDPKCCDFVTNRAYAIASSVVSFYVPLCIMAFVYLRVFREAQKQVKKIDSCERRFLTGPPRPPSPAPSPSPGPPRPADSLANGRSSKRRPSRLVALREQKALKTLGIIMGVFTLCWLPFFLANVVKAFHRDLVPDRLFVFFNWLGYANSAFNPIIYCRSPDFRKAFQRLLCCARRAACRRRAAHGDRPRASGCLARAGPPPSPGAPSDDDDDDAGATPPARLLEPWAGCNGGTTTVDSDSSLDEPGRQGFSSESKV

What is called pKi is the negative decadic logarithm of the Ki, by convention in mol/L. `CC(N)Cc1ccc2c(c1)OCO2` (stereo unspecified): the pKi is 7.00 and 6.72 in [1]; 6.72 in assay [2]; 6.80 in [3]; 6.97 in [4].

`CCCN1CC(CSC)CC2c3cccc4[nH]cc(c34)CC21` (stereo unspecified) [CAS_66104-22-1]: in [1], the pKi is 7.85 and 7.28.

With `CN[C@@H](C)Cc1ccc2c(c1)OCO2` [DL-(3,4-Methylenedioxy)methamphetamine], the pKi (in [5]; in [6]; in [7]; at D(1A) dopamine receptor; in assay [8]; in assay [9]) was less than 5.00 each time. For the same compound, the negative-log Ki (pKi) in assay [10] is less than 5.00; at D(2) dopamine receptor it was less than 5.00; in assay [11], less than 5.00; in assay [12], less than 5.00; in assay [13], 5.08; in assay [14] it was less than 5.00. In addition, the pKi was less than 5.00 in assay [15]; less than 5.00 on D(3) dopamine receptor; 5.67 on Histamine H1 receptor; less than 5.00 in [16]; less than 5.00 in assay [17]; less than 5.00 in [18]. Also, the pKi in assay [19] is less than 5.00; in assay [20], less than 5.00; in [21] it was less than 5.00; in assay [1], 6.30 and 5.70; in [22] it was less than 5.00; in [23], 5.92. Moreover, the pKi was 5.95 in [24]; less than 5.00 in [25]; less than 5.00 on D(4) dopamine receptor; less than 5.00 in [26]; less than 5.00 in [27]; 5.60 in assay [28]. Also, the negative logarithm of the Ki (pKi) is 6.56 in assay [2]; less than 5.00 at Cannabinoid receptor 1; less than 5.00 in assay [29]; less than 5.00 in assay [30]; less than 5.00 in assay [31]; less than 5.00 in assay [32]. Moreover, the pKi is less than 5.00 in assay [33]; 5.20 in assay [34]; 7.14 in assay [3]; less than 5.00 on D(1B) dopamine receptor; 6.96 in assay [4].

On to `CN[C@@H](C)Cc1ccc2c(c1)OCO2` [MDMA, R(-)], for which the pKi is 6.05 in assay [1], 5.43 in assay [2], 6.47 in assay [3] and 6.25 in [4].

Take `CN1CC(C(=O)NC2(C)OC3(O)C4CCCN4C(=O)C(Cc4ccccc4)N3C2=O)CC2c3cccc4[nH]cc(c34)CC21` (stereo unspecified) [NSC_3066]: in [1], the pKi was 7.82 and 7.52.

Turning to `CCNC(C)Cc1cccc(C(F)(F)F)c1` (stereo unspecified) [NSC_3337], in assay [2], the pKi is less than 5.00.

`CCC(CO)NC(=O)C1C=C2c3cccc4[nH]cc(c34)CC2N(C)C1` (stereo unspecified) [NSC_8226] gave a negative-log Ki (pKi) in assay [1] of 9.10.

For the compound `CC(N)Cc1cccc(C(F)(F)F)c1` (stereo unspecified) [NSC_15897], the negative logarithm of the Ki (pKi) is 7.82 and 7.22 in [1]; 5.72 in assay [2]; 6.98 in assay [3]; 6.77 in assay [4].

As for `CN[C@H](C)Cc1ccc2c(c1)OCO2` [NSC_126235], the pKi in assay [1] is 5.22; in [2] it was 6.85; in [3] it was 7.13; in assay [4], 6.87.

Take `C[C@@H](N)Cc1ccc2c(c1)OCO2` [NSC_3046161]: the negative logarithm of the Ki (pKi) in assay [1] was 6.82; in [2] it was 6.05; in [3] it was 6.51; in assay [4], 6.54.

Consider `C[C@H](N)Cc1ccc2c(c1)OCO2` [NSC_3050061], for which the negative logarithm of the Ki (pKi) in [1] was 7.00; in [2] it was 7.01; in assay [3], 7.00; in assay [4], 7.30.

On to `NCCc1c[nH]c2ccc(O)cc12` [[3H]-5-HT], for which the pKi in [2] and in assay [4] was less than 5.00 each time.

The values above are taken from BindingDB's records for doi:10.1124/mol.63.6.1223 (Case Western Reserve University, 2003).
